Assay results as given in patent US10517294B2, “Dihydrothiophene derivatives as insecticidal compounds” (priority 2012, dated 2019).

What was measured:
Type in all cases: in vivo
Spodoptera littoralis = Spodoptera littoralis (Egyptian cotton leaf worm), sprayed cotton leaf discs; conditions: foliar, 72 h, application rate 200 ppm, L1 larvae on cotton leaf discs, 3 days after infestation, read-out: control (at least one of mortality, anti-feedant effect, growth inhibition)
Description: Cotton leaf discs were placed on agar in 24-well microtiter plates and sprayed with aqueous test solutions prepared from 10′000 ppm DMSO stock solutions. After drying the leaf discs were infested with five L1 larvae. The samples were assessed for mortality, anti-feedant effect, and growth inhibition 3 days after infestation. Control of Spodoptera littoralis by a test sample is noted when at least one of mortality, anti-feedant effect, and growth inhibition is better than the untreated sample.

Heliothis virescens = Heliothis virescens (tobacco budworm), eggs on artificial diet; conditions: application rate 200 ppm, eggs 0-24 h old on artificial diet, 5 days after infestation, read-out: control (at least one of egg mortality, larval mortality, growth inhibition)
Description: Eggs (0-24 h old) were placed in 24-well microtiter plates on artificial diet and treated with aqueous test solutions prepared from 10′000 ppm DMSO stock solutions by pipetting. The samples were assessed for egg mortality, larval mortality and growth inhibition 5 days after infestation. Control of Heliothis virescens by a test sample is noted when at least one of egg mortality, larval mortality and growth inhibition is better than the untreated sample.

Plutella xylostella = Plutella xylostella (diamond back moth), artificial diet; conditions: 120 h, application rate 200 ppm, L2 larvae on artificial diet, 5 days after infestation, read-out: control (at least one of mortality, growth inhibition)
Description: 24-well microtiter plates with artificial diet were treated with aqueous test solutions prepared from 10′000 ppm DMSO stock solutions by pipetting. After drying, the plates were infested with L2 larvae (10 to 15 per well). The samples were assessed for mortality and growth inhibition 5 days after infestation. Control of Plutella xyllostella by a test sample is noted when at least one of mortality and growth inhibition is better than the untreated sample.

Diabrotica balteata = Diabrotica balteata (corn root worm), artificial diet; conditions: 120 h, application rate 200 ppm, L2 larvae on artificial diet, 5 days after infestation, read-out: control (at least one of mortality, growth inhibition)
Description: 24-well microtiter plates with artificial diet were treated with aqueous test solutions prepared from 10′000 ppm DMSO stock solutions by pipetting. After drying, the plates were infested with L2 larvae (6 to 10 per well). The samples were assessed for mortality and growth inhibition 5 days after infestation. Control of Diabrotica balteata by a test sample is noted when at least one of mortality and growth inhibition is better than the untreated sample.

Tetranychus urticae = Tetranychus urticae (two-spotted spider mite), sprayed bean leaf discs; conditions: foliar, 192 h, application rate 200 ppm, mixed ages on bean leaf discs, 8 days after infestation, read-out: control (mortality, mobile stages)
Description: Bean leaf discs on agar in 24-well microtiter plates were sprayed with aqueous test solutions prepared from 10′000 ppm DMSO stock solutions. After drying the leaf discs were infested with a mite population of mixed ages. The samples were assessed for mortality (mobile stages) 8 days after infestation.

Thrips tabaci = Thrips tabaci (onion thrips), sprayed sunflower leaf discs; conditions: foliar, 144 h, application rate 200 ppm, mixed ages on sunflower leaf discs, 6 days after infestation, read-out: control (mortality)
Description: Sunflower leaf discs were placed on agar in 24-well microtiter plates and sprayed with aqueous test solutions prepared from 10′000 ppm DMSO stock solutions. After drying the leaf discs were infested with a thrips population of mixed ages. The samples were assessed for mortality 6 days after infestation.

Euschistus heros = Euschistus heros (neotropical brown stink bug), sprayed soybean plants; conditions: 120 h, application rate 50 ppm, N2 nymphs on sprayed soybean plants, 5 days after infestation, read-out: control (at least one of mortality, growth inhibition)
Description: Two weeks old soybean plants were sprayed in a turn table spray chamber with the diluted spray solutions. After drying 2 soybean seeds were added and plants were infested with 10 N2 nymphs of the neotropical brown stink bug Euschistus heros in plastic test boxes. The samples were assessed for mortality and growth inhibition 5 days after infestation. Control of Euschistus heros by a test sample is noted when at least one of mortality and growth inhibition is better than the untreated sample.

Cc1cc(C2=CSC(c3cc(Cl)cc(Cl)c3)(C(F)(F)F)C2)ccc1C(N)=O (stereo not drawn) [Compound A6, 4-[2-(3,5-dichlorophenyl)-2-(trifluoromethyl)-3H-thiophen-4-yl]-2-methyl-benzamide]
≥ 80%: percent control (mortality, anti-feedant effect or growth inhibition) at 200 ppm (Spodoptera littoralis) | mortality at 200 ppm (Heliothis virescens) | mortality at 200 ppm (Plutella xylostella) | mortality at 200 ppm (Diabrotica balteata)

CON/C=N/C(=O)c1ccc(C2=CSC(c3cc(Cl)cc(Cl)c3)(C(F)(F)F)C2)cc1C (stereo not drawn) [Compound A10, (NE)-4-[2-(3,5-dichlorophenyl)-2-(trifluoromethyl)-3H-thiophen-4-yl]-N-[(methoxyamino)methylene]-2-methyl-benzamide]
≥ 80%: percent control (mortality, anti-feedant effect or growth inhibition) at 200 ppm (Spodoptera littoralis) | mortality at 200 ppm (Heliothis virescens) | mortality at 200 ppm (Plutella xylostella) | mortality at 200 ppm (Diabrotica balteata) | mortality at 200 ppm (Tetranychus urticae)

Cc1cc(C2=CS(=O)(=O)C(c3cc(Cl)cc(Cl)c3)(C(F)(F)F)C2)ccc1C(=O)NCC(F)(F)F (stereo not drawn) [Compound B2, 4-[2-(3,5-dichlorophenyl)-1,1-dioxo-2-(trifluoromethyl)-3H-thiophen-4-yl]-2-methyl-N-(2,2,2-trifluoroethyl)benzamide]
≥ 80%: percent control (mortality, anti-feedant effect or growth inhibition) at 200 ppm (Spodoptera littoralis) | mortality at 200 ppm (Heliothis virescens) | mortality at 200 ppm (Plutella xylostella) | mortality at 200 ppm (Diabrotica balteata)

Cc1cc(C2=CSC(c3cc(Cl)cc(Cl)c3)(C(F)(F)F)C2)ccc1C(=O)NC1CCC1 (stereo not drawn) [Compound A1, N-cyclobutyl-4-[2-(3,5-dichlorophenyl)-2-(trifluoromethyl)-3H-thiophen-4-yl]-2-methyl-benzamide]
≥ 80%: percent control (mortality, anti-feedant effect or growth inhibition) at 200 ppm (Spodoptera littoralis) | mortality at 200 ppm (Heliothis virescens) | mortality at 200 ppm (Plutella xylostella) | mortality at 200 ppm (Diabrotica balteata) | mortality at 200 ppm (Thrips tabaci) | mortality at 200 ppm (Tetranychus urticae) | mortality at 50 ppm (Euschistus heros)

N#Cc1cc(C2=CSC(c3cc(Cl)c(Cl)c(Cl)c3)(C(F)(F)F)C2)ccc1-n1cncn1 (stereo not drawn) [Compound C1, 2-(1,2,4-triazol-1-yl)-5-[2-(3,4,5-trichlorophenyl)-2-(trifluoromethyl)-3H-thiophen-4-yl]benzonitrile]
≥ 80%: percent control (mortality, anti-feedant effect or growth inhibition) at 200 ppm (Spodoptera littoralis) | mortality at 200 ppm (Heliothis virescens) | mortality at 200 ppm (Plutella xylostella) | mortality at 200 ppm (Diabrotica balteata)

Cc1cc(C2=CSC(c3cc(Cl)cc(Cl)c3)(C(F)(F)F)C2)ccc1C(=O)NC1CS(=O)(=O)C1 (stereo not drawn) [Compound A4, 4-[2-(3,5-dichlorophenyl)-2-(trifluoromethyl)-3H-thiophen-4-yl]-N-(1,1-dioxothietan-3-yl)-2-methyl-benzamide]
≥ 80%: percent control (mortality, anti-feedant effect or growth inhibition) at 200 ppm (Spodoptera littoralis) | mortality at 200 ppm (Heliothis virescens) | mortality at 200 ppm (Plutella xylostella) | mortality at 200 ppm (Diabrotica balteata) | mortality at 200 ppm (Thrips tabaci) | mortality at 200 ppm (Tetranychus urticae) | mortality at 50 ppm (Euschistus heros)

Cc1cc(C2=C[S+]([O-])C(c3cc(Cl)cc(Cl)c3)(C(F)(F)F)C2)ccc1C(=O)NCC(F)(F)F (stereo not drawn) [Compound B1, 4-[2-(3,5-dichlorophenyl)-1-oxido-2-(trifluoromethyl)-3H-thiophen-1-ium-4-yl]-2-methyl-N-(2,2,2-trifluoroethyl)benzamide]
≥ 80%: percent control (mortality, anti-feedant effect or growth inhibition) at 200 ppm (Spodoptera littoralis) | mortality at 200 ppm (Heliothis virescens) | mortality at 200 ppm (Plutella xylostella)

Cc1cc(C2=CSC(c3cc(Cl)cc(Cl)c3)(C(F)(F)F)C2)ccc1C(=O)NCC(F)(F)F (stereo not drawn) [Compound A2, 4-[2-(3,5-dichlorophenyl)-2-(trifluoromethyl)-3H-thiophen-4-yl]-2-methyl-N-(2,2,2-trifluoroethyl)benzamide]
≥ 80%: percent control (mortality, anti-feedant effect or growth inhibition) at 200 ppm (Spodoptera littoralis) | mortality at 200 ppm (Heliothis virescens) | mortality at 200 ppm (Plutella xylostella) | mortality at 200 ppm (Diabrotica balteata) | mortality at 200 ppm (Thrips tabaci) | mortality at 200 ppm (Tetranychus urticae) | mortality at 50 ppm (Euschistus heros)

CCN1OC[C@@H](NC(=O)c2ccc(C3=CSC(c4cc(Cl)cc(Cl)c4)(C(F)(F)F)C3)cc2C)C1=O (stereo partly drawn) [Compound A9, 4-[2-(3,5-dichlorophenyl)-2-(trifluoromethyl)-3H-thiophen-4-yl]-N-[(4R)-2-ethyl-3-oxo-isoxazolidin-4-yl]-2-methyl-benzamide]
≥ 80%: percent control (mortality, anti-feedant effect or growth inhibition) at 200 ppm (Spodoptera littoralis) | mortality at 200 ppm (Heliothis virescens) | mortality at 200 ppm (Plutella xylostella) | mortality at 200 ppm (Diabrotica balteata) | mortality at 200 ppm (Thrips tabaci) | mortality at 200 ppm (Tetranychus urticae) | mortality at 50 ppm (Euschistus heros)

Cc1cc(C2=CSC(c3cc(Cl)cc(Cl)c3)(C(F)(F)F)C2)ccc1C(=O)NC1CSC1 (stereo not drawn) [Compound A5, 4-[2-(3,5-dichlorophenyl)-2-(trifluoromethyl)-3H-thiophen-4-yl]-2-methyl-N-(thietan-3-yl)benzamide]
≥ 80%: percent control (mortality, anti-feedant effect or growth inhibition) at 200 ppm (Spodoptera littoralis) | mortality at 200 ppm (Heliothis virescens) | mortality at 200 ppm (Plutella xylostella) | mortality at 200 ppm (Diabrotica balteata) | mortality at 200 ppm (Thrips tabaci) | mortality at 200 ppm (Tetranychus urticae) | mortality at 50 ppm (Euschistus heros)

Cc1cc(C2=CSC(c3cc(Cl)cc(Cl)c3)(C(F)(F)F)C2)ccc1C(=O)NCc1ccccn1 (stereo not drawn) [Compound A8, 4-[2-(3,5-dichlorophenyl)-2-(trifluoromethyl)-3H-thiophen-4-yl]-2-methyl-N-(2-pyridylmethyl)benzamide]
≥ 80%: percent control (mortality, anti-feedant effect or growth inhibition) at 200 ppm (Spodoptera littoralis) | mortality at 200 ppm (Heliothis virescens) | mortality at 200 ppm (Plutella xylostella) | mortality at 200 ppm (Diabrotica balteata) | mortality at 200 ppm (Thrips tabaci) | mortality at 200 ppm (Tetranychus urticae)

Cc1cc(C2=CSC(c3cc(Cl)cc(Cl)c3)(C(F)(F)F)C2)ccc1C(=O)NCC(=O)NCC(F)(F)F (stereo not drawn) [Compound A3, 4-[2-(3,5-dichlorophenyl)-2-(trifluoromethyl)-3H-thiophen-4-yl]-2-methyl-N-[2-oxo-2-(2,2,2-trifluoroethylamino)ethyl]benzamide]
≥ 80%: percent control (mortality, anti-feedant effect or growth inhibition) at 200 ppm (Spodoptera littoralis) | mortality at 200 ppm (Heliothis virescens) | mortality at 200 ppm (Plutella xylostella) | mortality at 200 ppm (Diabrotica balteata) | mortality at 200 ppm (Thrips tabaci) | mortality at 200 ppm (Tetranychus urticae) | mortality at 50 ppm (Euschistus heros)

Cc1cc(C2=CSC(c3cc(Cl)cc(Cl)c3)(C(F)(F)F)C2)ccc1C(=O)N[C@H]1C[S@@+]([O-])C1 (stereo partly drawn) [Compound A7, 4-[2-(3,5-dichlorophenyl)-2-(trifluoromethyl)-3H-thiophen-4-yl]-2-methyl-N-(1-oxidothietan-1-ium-3-yl)benzamide]
≥ 80%: percent control (mortality, anti-feedant effect or growth inhibition) at 200 ppm (Spodoptera littoralis) | mortality at 200 ppm (Heliothis virescens) | mortality at 200 ppm (Plutella xylostella) | mortality at 200 ppm (Diabrotica balteata) | mortality at 200 ppm (Thrips tabaci) | mortality at 200 ppm (Tetranychus urticae) | mortality at 50 ppm (Euschistus heros)
